Source: patent publication US10317393B2, “Alkynyl sugar analogs for labeling and visualization of glycoconjugates in cells” (Academia Sinica, priority 2007, dated 2019)

Experiments:
MCF-7 cells = experiment: Confocal microscopy of fluorescently labeled glycoconjugates; format: cell-based, human; details: 200 micromolar Fuc or 25 micromolar ManNAc analogs, 3 days; probe 6 or 7
Description: (§1) One exemplary implementation of the disclosure provides a method to visualize the localization of glycoconjugates using alkynyl sugar tagging. To visualize the localization of glycoconjugates tagged with alkynyl sugars, adherent cells are grown on slides in the presence or absence of derivatized alkynyl sugars. After a 3-day-incubation, cells attached to the slides are fixed, permeabilized, and labeled with either biotin probe 6 or fluorogenic probe 7 for fluorescent signal analysis with confocal microscopy (FIGS. 4, 5, 10A, 10B and 11). For comparison, samples are also stained with wheat germ agglutinin (WGA, a Golgi marker) and Hoechst 33342 (marker for cell nuclei).
(§2) Human hepatocellular carcinoma cells (Hep3B) or breast adenocarcinoma cells (MCF-7) were seeded onto six-well plates (3×10^5/2 ml per well) containing glass coverslips, and were cultivated in 10% FCS/DMEM or 10% FCS/RPMI medium 1640. […]

Hep3B cells [1] = experiment: as above; format: cell-based, human; details: 200 micromolar Fuc or 25 micromolar ManNAc analogs, 3 days; probe 6 or 7
Description: as §1, §2

Jurkat cells = experiment: Flow cytometry of cell surface labeling with fluorogenic coumarin probe 7; format: cell-based, human; details: 200 micromolar Fuc analogs or 25 micromolar ManNAc analogs, 3 days
Description: FIGS. 3A and 3B show tagging of cell surface glycans by derivatized alkynyl sugar analogs and subsequent labeling with probe 3-azido-7-hydroxycoumarin 7. Shown is flow cytometry analysis of Jurkat cells tagged with 200 micromolar derivatized alkynyl Fuc 1 shown in FIG. 3A or 25 micromolar alkynyl-derivatized ManNAc 4 shown in FIG. 3B for 3 days. The fluorescence intensity was detected after labeling with a coumarin probe 7. Filled histogram, cells treated with control sugar analog 3 or 5; open histogram, cell treated with alkynyl-derivatized sugar 1 or 4.
Recently, another click-activated azido-derivatized fluorescent probe, based on coumarin, was reported in the literature. In one aspect of the disclosure, the fluorogenic probe, 3-azido-7-hydroxycoumarin 7, is used as the coupling partner for alkynyl tags on labeled glycoconjugates.
Jurkat cells were cultivated (2×10^6/10 ml) in RPMI medium 1640 supplemented with 10% FCS and various concentrations of peracetylated alkynyl sugars 1, 2, or 4 or native sugars 3 or 5, for 1-3 days at 37° C. […] Data were acquired by BD LSR II with FACSDiva software, and were analyzed by CellQuestPro software (BD Biosciences). Detection of fluorescent adduct with probe 7 was monitored with a 408 nm laser and a 440/40 bandpass filter for excitation and emission, respectively.

Hep3B cells [2] = experiment: Pulse-chase time-lapse microscopy of fucosylated glycans; format: cell-based, human; details: 30 minute pulse, biotin/streptavidin-FITC
Description: Additional cellular structures are visualized using alternative labeling systems (e.g., WGA lectin used to visualize Golgi apparatus, and Hoechst used to visualize nucleus).
Pulse-chased MOE experiments entail growing cells of interest to log-phase levels and then exposing them to the sugar analogs in the growth medium, as prescribed by standard MOE, but only for a 30 minute pulse, before replenishing with fresh medium devoid of sugars. Post sugar-pulse, the cells are grown for various lengths of time before analysis.
Cells of interest may be grown to log phase and then presented with various derivatized sugars for a limited period of time; for example, 30 minutes. After the limited period of time, the cells are no longer presented with the various sugars. The cells with glycoconjugates incorporating various tagged sugars may then be visualized over time through secondary detection and/or microscopy in relation to various intracellular and intercellular structures, in order to collect data on the trafficking and relative location of tagged and labeled glycoconjugates.

cell extracts = experiment: Labeling and detection of glycoconjugates in cell extracts (SDS/PAGE, Western blot); format: cell-based; details: 200 micromolar Fuc or 25 micromolar ManNAc analogs, 3 days
Description: Because the herein disclosed labeling system enables the identification of cellular glycoconjugates, it can also serve well in glyco-proteomic applications aimed at discovering unknown glycosylated targets for diagnostic and therapeutic purposes. […] Soluble lysate fractions are labeled with biotin probe 6, fluorogenic probe 7, or a standard azido-derivatized rhodamine probe used in proteomics before separating proteins by SDS/PAGE. […] Positive fluorescent signal was also detected in alkynyl positive protein lysate when labeled with fluorogenic 3-azido-7-hydroxycoumarin 7 and rhodamine probes (FIG. 6B and FIG. 11). […] Moreover, further processing, including a streptavidin/avidin enrichment or gel slice purification, will allow for comparative identification by proteomic mass spectrometry techniques of unknown glycoconjugates expressed at different cell status, for instance, un-differentiated verses differentiated cells, or normal verses cancer cells.
Cells were seeded at 3×10^6/8 ml per 10-cm dish and treated with control and test sugars (200 micromolar Fuc 3 vs. alkynyl derivatized Fuc 1, or 25 micromolar ManNAc 5 vs. alkynyl derivatized ManNAc 2) in growth medium at 37° C. […] Signal was developed with SuperSignal Chemiluminescent Substrate and detected by exposure to x-ray film. […] Rhodamine gels were analyzed.

Substance: 1,2,3,4-tetraacetyl alkynyl fucose [alkynyl Fuc 1]
- labeling signal by confocal microscopy (MCF-7 cells): strong punctate-labeling signal
- labeling signal by confocal microscopy (Hep3B cells [1]): strong punctate-labeling signal
- fluorescent labeling after reacting with 3-azido-7-hydroxycoumarin probe (Jurkat cells): significant fluorescent labeling
- signal for fucosylated glycans co-localized with Golgi marker after pulse (Hep3B cells [2]): co-localized yellow signal as early as 2 h
- labeling signal in proteins by Western blot or fluorescence (cell extracts): specific biotin-labeling signals
